In data set [1] the target is ATP-binding cassette sub-family C member 2 (Homo sapiens, UniProt Q92887). As to the kind of experiment: Activity at MRP2 (unknown origin) expressed in baculovirus-infected HEK293 cells assessed as drug transport at 400 uM after 10 mins by reversed-phase HPLC analysis in presence of ATP. The note with it: hek293, 10 min, BLD = below limit of detection. The data set is classed as ADME.

Data set [2] deals with T1, Broad substrate specificity ATP-binding cassette transporter ABCG2 (Homo sapiens, UniProt Q9UNQ0).
T1 sequence (Q9UNQ0 whole entry): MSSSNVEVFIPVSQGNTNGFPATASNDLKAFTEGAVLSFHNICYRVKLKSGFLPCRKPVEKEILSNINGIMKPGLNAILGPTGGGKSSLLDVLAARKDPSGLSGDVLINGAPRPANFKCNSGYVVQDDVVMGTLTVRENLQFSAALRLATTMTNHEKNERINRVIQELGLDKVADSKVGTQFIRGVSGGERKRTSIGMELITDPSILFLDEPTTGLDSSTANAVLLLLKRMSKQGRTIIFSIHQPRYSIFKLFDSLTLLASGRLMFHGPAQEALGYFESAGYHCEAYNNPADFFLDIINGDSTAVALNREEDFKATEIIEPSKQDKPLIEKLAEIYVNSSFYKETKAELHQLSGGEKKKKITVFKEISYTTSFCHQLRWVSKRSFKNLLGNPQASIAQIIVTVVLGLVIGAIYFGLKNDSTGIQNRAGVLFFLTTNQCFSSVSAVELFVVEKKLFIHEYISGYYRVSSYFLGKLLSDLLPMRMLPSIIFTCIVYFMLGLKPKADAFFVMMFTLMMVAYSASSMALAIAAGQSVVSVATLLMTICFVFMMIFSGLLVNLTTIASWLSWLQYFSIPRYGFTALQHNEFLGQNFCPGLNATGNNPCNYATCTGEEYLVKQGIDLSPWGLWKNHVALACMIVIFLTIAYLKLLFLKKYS
As to the kind of experiment: Activity at BCRP (unknown origin) expressed in baculovirus-infected HEK293 cells assessed as drug transport at 400 uM after 10 mins by reversed-phase HPLC analysis in presence of ATP. It counts as ADME. The note with it: hek293, 10 min, BLD = below limit of detection.

In data set [3] the target is T2, ATP-binding cassette sub-family C member 4 (Homo sapiens, UniProt O15439).
T2 sequence (O15439 whole entry): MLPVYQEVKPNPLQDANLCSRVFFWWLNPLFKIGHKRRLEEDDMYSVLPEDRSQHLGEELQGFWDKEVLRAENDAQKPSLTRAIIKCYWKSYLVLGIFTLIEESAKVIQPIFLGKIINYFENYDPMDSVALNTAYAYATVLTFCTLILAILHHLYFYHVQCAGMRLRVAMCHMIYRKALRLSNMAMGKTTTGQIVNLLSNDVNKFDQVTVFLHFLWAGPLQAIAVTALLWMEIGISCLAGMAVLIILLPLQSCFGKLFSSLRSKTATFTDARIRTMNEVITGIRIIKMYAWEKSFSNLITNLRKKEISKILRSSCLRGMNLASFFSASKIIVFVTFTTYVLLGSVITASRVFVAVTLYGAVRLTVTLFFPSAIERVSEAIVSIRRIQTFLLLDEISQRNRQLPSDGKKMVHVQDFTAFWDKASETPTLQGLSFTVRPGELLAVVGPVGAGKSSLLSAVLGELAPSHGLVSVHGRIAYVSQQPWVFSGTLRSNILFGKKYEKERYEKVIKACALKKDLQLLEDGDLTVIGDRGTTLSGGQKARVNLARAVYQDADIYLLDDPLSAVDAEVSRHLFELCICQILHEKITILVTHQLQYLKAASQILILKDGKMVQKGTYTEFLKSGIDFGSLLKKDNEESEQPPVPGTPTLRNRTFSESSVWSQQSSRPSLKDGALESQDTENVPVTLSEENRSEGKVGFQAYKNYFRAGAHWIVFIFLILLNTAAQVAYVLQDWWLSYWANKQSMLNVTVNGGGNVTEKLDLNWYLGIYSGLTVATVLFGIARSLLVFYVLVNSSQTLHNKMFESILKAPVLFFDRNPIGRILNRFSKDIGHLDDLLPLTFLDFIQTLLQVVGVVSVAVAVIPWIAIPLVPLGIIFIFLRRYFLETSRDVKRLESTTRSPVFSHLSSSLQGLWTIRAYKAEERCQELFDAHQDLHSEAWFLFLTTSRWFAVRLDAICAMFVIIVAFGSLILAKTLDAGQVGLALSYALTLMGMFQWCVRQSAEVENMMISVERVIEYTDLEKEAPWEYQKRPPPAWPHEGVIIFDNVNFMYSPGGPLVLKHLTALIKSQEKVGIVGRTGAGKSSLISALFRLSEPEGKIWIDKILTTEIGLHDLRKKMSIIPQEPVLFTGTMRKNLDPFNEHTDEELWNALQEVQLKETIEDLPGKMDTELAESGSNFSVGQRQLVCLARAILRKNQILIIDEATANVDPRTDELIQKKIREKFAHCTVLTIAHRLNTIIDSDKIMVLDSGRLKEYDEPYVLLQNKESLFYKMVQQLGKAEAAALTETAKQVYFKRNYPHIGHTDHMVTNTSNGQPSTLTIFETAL
As to the kind of experiment: Activity at MRP4 (unknown origin) expressed in baculovirus-infected HEK293 cells assessed as drug transport at 400 uM after 10 mins by reversed-phase HPLC analysis in presence of ATP. The data set is classed as ADME. Particulars: hek293, 10 min, BLD = below limit of detection.

Data set [4] deals with Multidrug resistance-associated protein 1 (Homo sapiens, UniProt P33527). As to the kind of experiment: Activity at MRP1 (unknown origin) expressed in baculovirus-infected HEK293 cells assessed as drug transport at 400 uM after 10 mins by reversed-phase HPLC analysis in presence of ATP. It counts as ADME. The note with it: hek293, 10 min, BLD = below limit of detection.
Sequence of Multidrug resistance-associated protein 1 (P33527 whole entry): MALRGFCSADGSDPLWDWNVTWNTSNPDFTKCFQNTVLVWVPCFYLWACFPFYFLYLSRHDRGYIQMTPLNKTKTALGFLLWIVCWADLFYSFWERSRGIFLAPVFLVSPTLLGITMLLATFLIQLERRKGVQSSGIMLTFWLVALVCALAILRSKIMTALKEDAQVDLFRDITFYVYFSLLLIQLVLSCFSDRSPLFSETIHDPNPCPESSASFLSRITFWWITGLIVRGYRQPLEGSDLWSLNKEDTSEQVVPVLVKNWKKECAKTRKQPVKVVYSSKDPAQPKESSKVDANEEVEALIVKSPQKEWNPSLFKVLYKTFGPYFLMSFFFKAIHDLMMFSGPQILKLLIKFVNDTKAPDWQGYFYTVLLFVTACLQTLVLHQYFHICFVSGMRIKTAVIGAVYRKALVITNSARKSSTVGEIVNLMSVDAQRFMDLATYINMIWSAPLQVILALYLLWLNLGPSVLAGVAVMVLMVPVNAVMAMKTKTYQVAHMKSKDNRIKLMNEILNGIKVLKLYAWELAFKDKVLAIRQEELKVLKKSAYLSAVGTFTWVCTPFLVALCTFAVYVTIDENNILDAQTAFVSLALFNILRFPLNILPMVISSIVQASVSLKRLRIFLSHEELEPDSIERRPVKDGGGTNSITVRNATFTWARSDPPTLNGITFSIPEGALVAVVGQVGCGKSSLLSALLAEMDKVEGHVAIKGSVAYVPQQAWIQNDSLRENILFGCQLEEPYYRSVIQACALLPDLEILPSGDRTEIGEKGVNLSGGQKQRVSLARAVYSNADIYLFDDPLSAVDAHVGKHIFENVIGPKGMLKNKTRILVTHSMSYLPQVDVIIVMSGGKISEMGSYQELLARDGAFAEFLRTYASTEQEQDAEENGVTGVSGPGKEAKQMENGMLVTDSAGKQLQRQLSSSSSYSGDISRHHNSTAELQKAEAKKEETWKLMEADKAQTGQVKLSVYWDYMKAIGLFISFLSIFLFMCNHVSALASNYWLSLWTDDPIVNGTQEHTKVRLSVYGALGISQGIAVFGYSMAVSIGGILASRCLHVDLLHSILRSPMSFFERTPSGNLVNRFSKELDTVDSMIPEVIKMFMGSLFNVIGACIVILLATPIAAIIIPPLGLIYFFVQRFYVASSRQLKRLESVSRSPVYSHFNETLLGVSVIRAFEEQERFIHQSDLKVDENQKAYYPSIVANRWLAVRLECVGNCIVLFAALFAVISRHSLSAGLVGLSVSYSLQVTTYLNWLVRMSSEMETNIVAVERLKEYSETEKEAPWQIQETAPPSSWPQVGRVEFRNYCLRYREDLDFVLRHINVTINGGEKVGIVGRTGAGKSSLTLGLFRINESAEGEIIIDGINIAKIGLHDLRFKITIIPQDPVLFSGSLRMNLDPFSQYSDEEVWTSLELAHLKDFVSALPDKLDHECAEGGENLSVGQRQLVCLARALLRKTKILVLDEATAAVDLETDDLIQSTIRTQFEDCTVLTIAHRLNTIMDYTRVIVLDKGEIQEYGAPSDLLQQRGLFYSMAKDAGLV
In data set [5] the target is ATP-binding cassette sub-family C member 3 (Homo sapiens, UniProt O15438). As to the kind of experiment: Activity at MRP3 (unknown origin) expressed in baculovirus-infected HEK293 cells assessed as drug transport at 400 uM after 10 mins by reversed-phase HPLC analysis in presence of ATP. It counts as ADME. The note with it: hek293, 10 min, BLD = below limit of detection.

Data set [6] is described as follows: Activity at P-gp (unknown origin) expressed in baculovirus-infected HEK293 cells assessed as drug transport at 400 uM after 10 mins by reversed-phase HPLC analysis in presence of ATP. It counts as ADME. Particulars: human, hek293, 10 min, BLD = below limit of detection.
Substrate in data set [7]: O=C(O)[C@H]1O[C@@H](Oc2ccc3ccc(=O)oc3c2)[C@H](O)[C@@H](O)[C@@H]1O
As to the kind of experiment: Activity at MRP4 (unknown origin) expressed in baculovirus-infected HEK293 cells assessed as drug transport after 10 mins by Michaelis-Menten plot analysis. The data set is classed as ADME, Homo sapiens.

Substrate in data set [8]: O=C(O)[C@H]1O[C@@H](Oc2ccc3ccc(=O)oc3c2)[C@H](O)[C@@H](O)[C@@H]1O
As to the kind of experiment: Activity at MRP3 (unknown origin) expressed in baculovirus-infected HEK293 cells assessed as drug transport after 10 mins by Michaelis-Menten plot analysis. It counts as ADME, Homo sapiens.

By Km is commonly meant the substrate concentration at which the rate is half of its maximum. The term Vmax denotes the top rate of the reaction or transport when substrate is in excess.

Sequence of ATP-binding cassette sub-family C member 2 (Q92887 whole entry): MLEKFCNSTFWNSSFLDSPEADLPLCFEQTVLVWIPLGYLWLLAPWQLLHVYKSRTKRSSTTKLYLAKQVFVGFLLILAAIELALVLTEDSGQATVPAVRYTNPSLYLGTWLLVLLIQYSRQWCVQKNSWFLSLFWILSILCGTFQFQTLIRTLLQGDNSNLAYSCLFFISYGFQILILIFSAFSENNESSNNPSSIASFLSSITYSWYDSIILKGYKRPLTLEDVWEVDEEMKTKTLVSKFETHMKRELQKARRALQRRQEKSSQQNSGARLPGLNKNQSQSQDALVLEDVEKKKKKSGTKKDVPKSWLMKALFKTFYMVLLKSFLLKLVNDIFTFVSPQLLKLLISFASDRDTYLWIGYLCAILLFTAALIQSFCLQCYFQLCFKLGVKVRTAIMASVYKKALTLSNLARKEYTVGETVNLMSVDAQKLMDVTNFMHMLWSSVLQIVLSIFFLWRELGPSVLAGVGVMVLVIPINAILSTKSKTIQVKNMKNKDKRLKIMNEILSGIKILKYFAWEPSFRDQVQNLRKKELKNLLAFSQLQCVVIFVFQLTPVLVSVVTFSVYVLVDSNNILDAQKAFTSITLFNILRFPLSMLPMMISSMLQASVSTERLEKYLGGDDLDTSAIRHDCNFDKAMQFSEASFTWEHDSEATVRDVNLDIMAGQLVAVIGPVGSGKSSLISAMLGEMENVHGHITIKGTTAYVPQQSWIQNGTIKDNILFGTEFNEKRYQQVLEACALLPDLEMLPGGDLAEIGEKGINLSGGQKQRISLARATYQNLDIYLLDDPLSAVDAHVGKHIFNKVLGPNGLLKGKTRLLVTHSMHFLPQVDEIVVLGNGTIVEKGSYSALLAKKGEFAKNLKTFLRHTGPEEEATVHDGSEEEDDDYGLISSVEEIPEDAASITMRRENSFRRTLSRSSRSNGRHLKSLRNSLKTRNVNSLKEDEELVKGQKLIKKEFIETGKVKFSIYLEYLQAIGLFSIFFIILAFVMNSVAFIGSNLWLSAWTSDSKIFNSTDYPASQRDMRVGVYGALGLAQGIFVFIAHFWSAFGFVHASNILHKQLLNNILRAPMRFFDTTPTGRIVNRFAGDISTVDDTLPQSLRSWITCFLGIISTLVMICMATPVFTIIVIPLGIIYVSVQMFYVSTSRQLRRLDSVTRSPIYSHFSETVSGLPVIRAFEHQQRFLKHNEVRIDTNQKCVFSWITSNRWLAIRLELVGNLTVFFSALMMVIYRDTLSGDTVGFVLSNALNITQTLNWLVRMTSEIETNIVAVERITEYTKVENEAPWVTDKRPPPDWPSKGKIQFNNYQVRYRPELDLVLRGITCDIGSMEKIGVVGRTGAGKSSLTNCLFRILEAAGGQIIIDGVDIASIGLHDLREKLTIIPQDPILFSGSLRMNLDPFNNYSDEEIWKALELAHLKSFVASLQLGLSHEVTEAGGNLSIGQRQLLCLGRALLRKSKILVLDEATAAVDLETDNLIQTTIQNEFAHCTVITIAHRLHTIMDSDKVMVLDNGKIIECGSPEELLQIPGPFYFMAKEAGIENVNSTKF

Consider `O=c1ccc2ccc(O)cc2o1` [UMBELLIFERONE], for which the Drug transport entry in data set [1], in data set [2], in data set [3], in data set [4], in data set [5] and in data set [6] was “BLD” throughout.

B1: ATP-binding cassette sub-family C member 4 (Homo sapiens) (protein)
chain: MLPVYQEVKPNPLQDANLCSRVFFWWLNPLFKIGHKRRLEEDDMYSVLPEDRSQHLGEELQGFWDKEVLRAENDAQKPSLTRAIIKCYWKSYLVLGIFTLIEESAKVIQPIFLGKIINYFENYDPMDSVALNTAYAYATVLTFCTLILAILHHLYFYHVQCAGMRLRVAMCHMIYRKALRLSNMAMGKTTTGQIVNLLSNDVNKFDQVTVFLHFLWAGPLQAIAVTALLWMEIGISCLAGMAVLIILLPLQSCFGKLFSSLRSKTATFTDARIRTMNEVITGIRIIKMYAWEKSFSNLITNLRKKEISKILRSSCLRGMNLASFFSASKIIVFVTFTTYVLLGSVITASRVFVAVTLYGAVRLTVTLFFPSAIERVSEAIVSIRRIQTFLLLDEISQRNRQLPSDGKKMVHVQDFTAFWDKASETPTLQGLSFTVRPGELLAVVGPVGAGKSSLLSAVLGELAPSHGLVSVHGRIAYVSQQPWVFSGTLRSNILFGKKYEKERYEKVIKACALKKDLQLLEDGDLTVIGDRGTTLSGGQKARVNLARAVYQDADIYLLDDPLSAVDAEVSRHLFELCICQILHEKITILVTHQLQYLKAASQILILKDGKMVQKGTYTEFLKSGIDFGSLLKKDNEESEQPPVPGTPTLRNRTFSESSVWSQQSSRPSLKDGALESQDTENVPVTLSEENRSEGKVGFQAYKNYFRAGAHWIVFIFLILLNTAAQVAYVLQDWWLSYWANKQSMLNVTVNGGGNVTEKLDLNWYLGIYSGLTVATVLFGIARSLLVFYVLVNSSQTLHNKMFESILKAPVLFFDRNPIGRILNRFSKDIGHLDDLLPLTFLDFIQTLLQVVGVVSVAVAVIPWIAIPLVPLGIIFIFLRRYFLETSRDVKRLESTTRSPVFSHLSSSLQGLWTIRAYKAEERCQELFDAHQDLHSEAWFLFLTTSRWFAVRLDAICAMFVIIVAFGSLILAKTLDAGQVGLALSYALTLMGMFQWCVRQSAEVENMMISVERVIEYTDLEKEAPWEYQKRPPPAWPHEGVIIFDNVNFMYSPGGPLVLKHLTALIKSQEKVGIVGRTGAGKSSLISALFRLSEPEGKIWIDKILTTEIGLHDLRKKMSIIPQEPVLFTGTMRKNLDPFNEHTDEELWNALQEVQLKETIEDLPGKMDTELAESGSNFSVGQRQLVCLARAILRKNQILIIDEATANVDPRTDELIQKKIREKFAHCTVLTIAHRLNTIIDSDKIMVLDSGRLKEYDEPYVLLQNKESLFYKMVQQLGKAEAAALTETAKQVYFKRNYPHIGHTDHMVTNTSNGQPSTLTIFETAL
As to B1, in data set [7], the Km turned out to be 63 µM and the Vmax stood at 0.00092 µmol/min/mg.

B2: ATP-binding cassette sub-family C member 3 (Homo sapiens) (protein)
chain: MDALCGSGELGSKFWDSNLSVHTENPDLTPCFQNSLLAWVPCIYLWVALPCYLLYLRHHCRGYIILSHLSKLKMVLGVLLWCVSWADLFYSFHGLVHGRAPAPVFFVTPLVVGVTMLLATLLIQYERLQGVQSSGVLIIFWFLCVVCAIVPFRSKILLAKAEGEISDPFRFTTFYIHFALVLSALILACFREKPPFFSAKNVDPNPYPETSAGFLSRLFFWWFTKMAIYGYRHPLEEKDLWSLKEEDRSQMVVQQLLEAWRKQEKQTARHKASAAPGKNASGEDEVLLGARPRPRKPSFLKALLATFGSSFLISACFKLIQDLLSFINPQLLSILIRFISNPMAPSWWGFLVAGLMFLCSMMQSLILQHYYHYIFVTGVKFRTGIMGVIYRKALVITNSVKRASTVGEIVNLMSVDAQRFMDLAPFLNLLWSAPLQIILAIYFLWQNLGPSVLAGVAFMVLLIPLNGAVAVKMRAFQVKQMKLKDSRIKLMSEILNGIKVLKLYAWEPSFLKQVEGIRQGELQLLRTAAYLHTTTTFTWMCSPFLVTLITLWVYVYVDPNNVLDAEKAFVSVSLFNILRLPLNMLPQLISNLTQASVSLKRIQQFLSQEELDPQSVERKTISPGYAITIHSGTFTWAQDLPPTLHSLDIQVPKGALVAVVGPVGCGKSSLVSALLGEMEKLEGKVHMKGSVAYVPQQAWIQNCTLQENVLFGKALNPKRYQQTLEACALLADLEMLPGGDQTEIGEKGINLSGGQRQRVSLARAVYSDADIFLLDDPLSAVDSHVAKHIFDHVIGPEGVLAGKTRVLVTHGISFLPQTDFIIVLADGQVSEMGPYPALLQRNGSFANFLCNYAPDEDQGHLEDSWTALEGAEDKEALLIEDTLSNHTDLTDNDPVTYVVQKQFMRQLSALSSDGEGQGRPVPRRHLGPSEKVQVTEAKADGALTQEEKAAIGTVELSVFWDYAKAVGLCTTLAICLLYVGQSAAAIGANVWLSAWTNDAMADSRQNNTSLRLGVYAALGILQGFLVMLAAMAMAAGGIQAARVLHQALLHNKIRSPQSFFDTTPSGRILNCFSKDIYVVDEVLAPVILMLLNSFFNAISTLVVIMASTPLFTVVILPLAVLYTLVQRFYAATSRQLKRLESVSRSPIYSHFSETVTGASVIRAYNRSRDFEIISDTKVDANQRSCYPYIISNRWLSIGVEFVGNCVVLFAALFAVIGRSSLNPGLVGLSVSYSLQVTFALNWMIRMMSDLESNIVAVERVKEYSKTETEAPWVVEGSRPPEGWPPRGEVEFRNYSVRYRPGLDLVLRDLSLHVHGGEKVGIVGRTGAGKSSMTLCLFRILEAAKGEIRIDGLNVADIGLHDLRSQLTIIPQDPILFSGTLRMNLDPFGSYSEEDIWWALELSHLHTFVSSQPAGLDFQCSEGGENLSVGQRQLVCLARALLRKSRILVLDEATAAIDLETDNLIQATIRTQFDTCTVLTIAHRLNTIMDYTRVLVLDKGVVAEFDSPANLIAARGIFYGMARDAGLA
Consider B2, for which, in data set [8], the Michaelis-Menten constant (Km) was determined as 187 µM and the Vmax was determined as 0.00046 µmol/min/mg.

For the origin of these results see ChEMBL document CHEMBL3526030, “Transport of the coumarin metabolite 7-hydroxycoumarin glucuronide is mediated via multidrug resistance-associated proteins 3 and 4” (Drug Metab Dispos, 2012).
